This experiment deals with T1, recombinant active Casp6 (Homo sapiens, UniProt P55212, INS179NQTEKLDTNITEVD).
T1 construct: generating mainly large subunit with a linker (LS-L), small subunit (SS), and a minor amount of large subunit (LS); His (C); made in house; host or cells: E. coli BL21(DE3)pLysS
T1 sequence (P55212 24-193 limits assumed): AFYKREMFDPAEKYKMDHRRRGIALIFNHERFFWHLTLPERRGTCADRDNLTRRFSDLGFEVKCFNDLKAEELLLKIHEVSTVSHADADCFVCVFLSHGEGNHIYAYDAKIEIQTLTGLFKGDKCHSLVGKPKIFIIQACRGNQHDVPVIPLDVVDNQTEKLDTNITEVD
T1 sequence (P55212 194-293 limits assumed): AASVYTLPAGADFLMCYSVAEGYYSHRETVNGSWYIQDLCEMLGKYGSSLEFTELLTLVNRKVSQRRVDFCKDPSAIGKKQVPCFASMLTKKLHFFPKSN
The experiment is described as follows: Colorimetric Ac-VEID-pNA cleavage assay. The class given is biochemical. To be noted: 100 µM compound, 200 µM Ac-VEID-pNA, 200 nM Casp6. The procedure: To assess the potency of in silico hits, a fluorescence-based Ac-VEID-AFC cleavage assay was used to measure recombinant active Casp6 reaction rate in the absence or presence of 100 µM concentration of compounds. A 30% inhibition cut off was arbitrarily chosen for further investigation of putative inhibitors. […] AFC signal interference by compound intrinsic fluorescence was ruled out (Fig. S4). Casp6 inhibition was confirmed for seven compounds (C7, C13, C14, S2, S10, S11 and S13) using a colorimetric Ac-VEID-pNA cleavage assay (Table 2, Fig. S3).
In fluorescence-based Casp6 activity assay, 10 µM Ac-VEID-AFC was added to 20 nM Casp6 in SB with 100 μM compound and 1% dimethyl sulfoxide (DMSO), and reaction rate was measured for 20 min at 37 °C as above. Compound potency was calculated by normalising Ac-VEID-AFC cleavage rate to 1% DMSO control. In colorimetric Casp6 activity assay, 200 µM Ac-VEID-pNA (N-acetyl-Val-Glu-Ile-Asp-p-nitroanilide, Enzo Life Sciences) was added to 200 nM Casp6 in SB with 100 μM compound, and Ac-VEID-pNA cleavage rate was measured at 37 °C for 30 min in clear 96-well plate (Sartstedt, Nümbrecht, Germany) using Synergy H4 plate reader at 405 nm. Absorbance was converted to the released pNA amount based on a standard curve of 0–250 µM pNA. Cleavage rates were calculated from the linear assay phase and were normalised to 1% DMSO control. In Casp6-C163A cleavage assay, 0.5 ng/µl Casp6-WT was preincubated with 100 µM inhibitor, 5 µM Q-VD-OPh or 1% DMSO in SB (30 min, RT), followed by transfer on ice, addition of 0.5 µg/µl Casp6-C163A, and incubation (37 °C, 5, 10 and 15 min). Reactions were stopped by adding SDS-PAGE sample buffer (62.5 mM Tris pH 6.8, 2% SDS, 0.1 M DTT, 0.01% Bromphenol Blue, 10% glycerol) and heating (5 min, 95 °C). Samples (2 µl) were analysed on 15% SDS-PAGE gels, proteins were stained with Coomassie blue, and gels were de-stained with 10% acetic acid. The intensities of protein bands were quantified from scanned gels using ImageJ. The band intensity of Casp6-C163A without a prodomain was plotted against the time and the Casp6-C163A cleavage rates were calculated from the slopes of linear plots. The % activity of Casp6-WT in the presence of inhibitors was calculated relative to DMSO control.

Regarding `COC(=O)c1cc(CNC(=O)C2Cc3ccccc3O2)cc(NC(=O)c2ccco2)c1` (stereo not shown) [Compound C13], the inhibition (usually the change of the read-out against control, counted positive when it falls) at 100 µM is 86.7%.

For the origin of these results see PMC6445123 (Scientific Reports, 2019).
